Data reported in ChEMBL document CHEMBL1201862, “PubChem BioAssay data set” (2004).
Calls of active or inactive are those of the source.

biological target: T1, Protein skinhead-1 (Caenorhabditis elegans, UniProt P34707); experiment: not given; type: functional; settings: not given
T1 sequence (P34707 whole entry): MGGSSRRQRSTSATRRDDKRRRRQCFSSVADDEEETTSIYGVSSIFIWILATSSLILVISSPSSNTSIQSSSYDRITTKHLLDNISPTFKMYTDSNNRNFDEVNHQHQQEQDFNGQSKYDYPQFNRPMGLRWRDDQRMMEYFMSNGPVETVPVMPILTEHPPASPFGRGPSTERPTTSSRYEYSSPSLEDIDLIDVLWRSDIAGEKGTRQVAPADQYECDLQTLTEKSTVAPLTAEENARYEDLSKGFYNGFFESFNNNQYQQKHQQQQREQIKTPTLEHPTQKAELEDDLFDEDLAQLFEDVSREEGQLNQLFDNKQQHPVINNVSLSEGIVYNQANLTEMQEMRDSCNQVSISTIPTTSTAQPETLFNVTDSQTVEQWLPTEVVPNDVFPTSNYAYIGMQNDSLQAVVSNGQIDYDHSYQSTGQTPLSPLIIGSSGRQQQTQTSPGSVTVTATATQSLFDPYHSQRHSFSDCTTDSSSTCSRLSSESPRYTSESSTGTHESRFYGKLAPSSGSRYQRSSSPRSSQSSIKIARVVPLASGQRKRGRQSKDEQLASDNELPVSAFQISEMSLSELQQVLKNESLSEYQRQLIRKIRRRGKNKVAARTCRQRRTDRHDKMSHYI

SMILES	IC50
c1ccc(Oc2cc(-c3ccccc3)ncn2)cc1	17.4 µM (active)

biological target: T2, Cytochrome P450 1A2 (Homo sapiens, UniProt P05177); experiment: not given; settings: not given;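 note: PubChem cytochrome P450 panel assay, CYP1A2 panel member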
T2 sequence (P05177 whole entry): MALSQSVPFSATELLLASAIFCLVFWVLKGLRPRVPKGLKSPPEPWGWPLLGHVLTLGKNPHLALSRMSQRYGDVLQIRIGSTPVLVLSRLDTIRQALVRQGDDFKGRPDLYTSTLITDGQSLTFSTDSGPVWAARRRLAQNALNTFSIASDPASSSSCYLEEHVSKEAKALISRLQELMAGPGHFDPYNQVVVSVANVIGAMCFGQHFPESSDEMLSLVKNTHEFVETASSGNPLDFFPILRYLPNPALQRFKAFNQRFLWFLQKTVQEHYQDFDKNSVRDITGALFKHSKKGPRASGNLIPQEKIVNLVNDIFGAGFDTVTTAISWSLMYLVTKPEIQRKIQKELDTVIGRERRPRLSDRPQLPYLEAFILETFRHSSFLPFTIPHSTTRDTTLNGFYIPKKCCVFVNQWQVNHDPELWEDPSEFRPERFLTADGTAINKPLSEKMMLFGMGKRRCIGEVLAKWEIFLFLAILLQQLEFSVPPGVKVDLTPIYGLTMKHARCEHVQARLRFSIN

SMILES	AC50
C[C@]12Cc3cn4c(nc3C=C1CC[C@H]1[C@@H]2CC[C@@]2(C)[C@H]1CC[C@@]2(O)C#N)nc1ccccc14	15.8 µM (inconclusive)
Cc1ccccc1OCC(=O)Nc1ccc(N2CCN(C(=O)C(C)C)CC2)c(Cl)c1	15.8 µM (inconclusive)

biological target: Luciferin 4-monooxygenase (Photinus pyralis, UniProt P08659); experiment: firefly luciferase enzyme inhibitors, dose response, biochemical, luminescence (AID 1891); settings: not given

SMILES	EC50
O=C(COC(=O)c1n[nH]c2ccccc12)Nc1cccc(S(=O)(=O)N2CCOCC2)c1	> 112 µM (not active)

biological target: T3, Voltage-gated N-type calcium channel alpha-1B subunit/Amyloid beta A4 precursor protein-binding family A member 1 (Homo sapiens, UniProt Q00975+Q02410); experiment: not given; type: protein assay; settings: not given
T3 sequence (Q00975 whole entry): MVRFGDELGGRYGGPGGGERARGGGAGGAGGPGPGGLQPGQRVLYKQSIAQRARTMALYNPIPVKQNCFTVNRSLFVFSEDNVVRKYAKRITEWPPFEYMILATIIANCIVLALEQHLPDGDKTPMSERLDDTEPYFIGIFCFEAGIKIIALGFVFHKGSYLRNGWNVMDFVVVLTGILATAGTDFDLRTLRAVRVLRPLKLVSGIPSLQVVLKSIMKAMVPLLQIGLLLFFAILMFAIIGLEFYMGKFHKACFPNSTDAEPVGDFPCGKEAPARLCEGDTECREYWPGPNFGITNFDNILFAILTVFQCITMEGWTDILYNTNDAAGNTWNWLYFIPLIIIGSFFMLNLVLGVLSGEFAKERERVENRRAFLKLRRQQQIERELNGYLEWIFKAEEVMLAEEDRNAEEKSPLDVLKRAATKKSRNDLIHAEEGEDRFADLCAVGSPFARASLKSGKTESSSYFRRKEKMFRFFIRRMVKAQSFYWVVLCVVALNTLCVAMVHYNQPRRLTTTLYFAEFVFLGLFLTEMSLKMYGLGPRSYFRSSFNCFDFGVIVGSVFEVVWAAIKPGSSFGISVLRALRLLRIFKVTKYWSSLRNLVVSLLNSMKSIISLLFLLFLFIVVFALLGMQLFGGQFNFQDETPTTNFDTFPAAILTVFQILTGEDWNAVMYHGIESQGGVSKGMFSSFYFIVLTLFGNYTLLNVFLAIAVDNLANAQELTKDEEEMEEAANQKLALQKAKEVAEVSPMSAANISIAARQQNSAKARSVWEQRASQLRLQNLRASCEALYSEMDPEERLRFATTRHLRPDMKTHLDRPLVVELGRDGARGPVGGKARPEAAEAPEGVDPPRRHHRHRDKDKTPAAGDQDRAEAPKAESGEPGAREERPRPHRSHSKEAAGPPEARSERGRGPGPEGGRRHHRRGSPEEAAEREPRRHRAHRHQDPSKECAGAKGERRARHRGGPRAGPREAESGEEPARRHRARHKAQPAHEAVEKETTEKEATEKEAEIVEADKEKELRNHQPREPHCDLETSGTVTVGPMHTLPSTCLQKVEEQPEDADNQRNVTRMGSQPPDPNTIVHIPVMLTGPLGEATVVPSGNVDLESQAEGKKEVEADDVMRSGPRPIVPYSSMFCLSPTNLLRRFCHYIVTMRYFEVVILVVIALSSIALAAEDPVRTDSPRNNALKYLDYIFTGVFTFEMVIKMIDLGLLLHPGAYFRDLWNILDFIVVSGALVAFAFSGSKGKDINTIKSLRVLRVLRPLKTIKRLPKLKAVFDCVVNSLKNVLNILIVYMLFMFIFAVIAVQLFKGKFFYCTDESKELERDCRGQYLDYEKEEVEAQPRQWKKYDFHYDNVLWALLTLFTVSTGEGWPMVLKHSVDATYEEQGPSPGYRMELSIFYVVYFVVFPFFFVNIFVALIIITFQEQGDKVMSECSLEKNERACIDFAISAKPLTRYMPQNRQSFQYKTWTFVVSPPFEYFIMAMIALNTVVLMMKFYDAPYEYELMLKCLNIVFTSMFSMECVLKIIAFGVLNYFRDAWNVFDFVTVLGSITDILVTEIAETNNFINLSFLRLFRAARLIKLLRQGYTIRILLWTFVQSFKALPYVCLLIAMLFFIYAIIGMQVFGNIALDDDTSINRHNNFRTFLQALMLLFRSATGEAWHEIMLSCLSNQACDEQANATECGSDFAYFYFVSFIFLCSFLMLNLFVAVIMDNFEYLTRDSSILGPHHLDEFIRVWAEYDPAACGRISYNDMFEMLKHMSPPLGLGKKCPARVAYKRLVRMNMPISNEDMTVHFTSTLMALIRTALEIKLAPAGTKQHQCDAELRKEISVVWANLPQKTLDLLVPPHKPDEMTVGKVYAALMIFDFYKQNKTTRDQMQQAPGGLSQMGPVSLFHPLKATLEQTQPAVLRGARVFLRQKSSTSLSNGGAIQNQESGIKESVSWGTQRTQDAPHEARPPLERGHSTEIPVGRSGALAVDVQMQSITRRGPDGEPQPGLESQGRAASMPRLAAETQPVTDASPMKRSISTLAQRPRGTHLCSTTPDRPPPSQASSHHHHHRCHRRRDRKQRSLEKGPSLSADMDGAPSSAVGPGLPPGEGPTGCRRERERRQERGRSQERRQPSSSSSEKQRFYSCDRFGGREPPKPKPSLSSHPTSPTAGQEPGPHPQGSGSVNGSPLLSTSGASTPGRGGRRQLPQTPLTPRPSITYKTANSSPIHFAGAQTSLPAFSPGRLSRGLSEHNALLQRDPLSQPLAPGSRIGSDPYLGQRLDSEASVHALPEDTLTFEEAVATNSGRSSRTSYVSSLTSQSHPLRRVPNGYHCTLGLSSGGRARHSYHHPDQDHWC
T3 sequence (Q02410 whole entry): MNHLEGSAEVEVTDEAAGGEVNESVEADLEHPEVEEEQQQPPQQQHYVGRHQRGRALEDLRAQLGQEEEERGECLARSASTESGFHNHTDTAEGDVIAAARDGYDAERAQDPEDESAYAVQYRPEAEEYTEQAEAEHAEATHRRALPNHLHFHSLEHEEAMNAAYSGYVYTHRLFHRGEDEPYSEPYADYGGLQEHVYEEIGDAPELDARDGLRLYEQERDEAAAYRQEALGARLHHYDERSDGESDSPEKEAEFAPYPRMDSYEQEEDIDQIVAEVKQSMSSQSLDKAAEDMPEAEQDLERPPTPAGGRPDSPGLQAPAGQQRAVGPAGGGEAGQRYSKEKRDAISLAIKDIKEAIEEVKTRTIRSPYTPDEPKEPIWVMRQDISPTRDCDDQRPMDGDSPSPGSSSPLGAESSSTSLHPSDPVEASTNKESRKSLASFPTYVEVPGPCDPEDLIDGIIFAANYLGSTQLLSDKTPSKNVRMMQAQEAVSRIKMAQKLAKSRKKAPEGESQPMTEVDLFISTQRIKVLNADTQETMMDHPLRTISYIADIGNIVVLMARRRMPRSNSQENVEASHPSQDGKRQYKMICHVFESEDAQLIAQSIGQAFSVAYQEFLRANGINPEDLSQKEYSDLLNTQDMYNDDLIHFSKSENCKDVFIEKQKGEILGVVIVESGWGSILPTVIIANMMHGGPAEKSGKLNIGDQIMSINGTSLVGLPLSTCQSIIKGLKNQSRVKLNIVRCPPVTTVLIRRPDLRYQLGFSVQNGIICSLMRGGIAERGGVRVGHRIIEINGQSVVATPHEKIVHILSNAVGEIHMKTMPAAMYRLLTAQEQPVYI

SMILES	IC50
CC(=O)NC1=NC(=O)/C(=C/c2cn(C(C)=O)nc2-c2ccccc2)S1	> 50 µM (inactive)

biological target: Prothrombin (Homo sapiens, UniProt P00734); experiment: Thrombin 1536 HTS Dose Response Confirmation. [Related pubchem assays: 1046 (Thrombin 1536 HTS; hits were confirmed in this assay)]; type: functional; settings: not given

SMILES	IC50
O=C(COC(=O)c1n[nH]c2ccccc12)Nc1cccc(S(=O)(=O)N2CCOCC2)c1	1.11 µM (active)
O=C(CCc1ccccc1)n1nc(-c2ccco2)nc1SCc1ccccc1	0.133 µM (active)
Cn1c(SCC(=O)NN=C(S)Nc2ccccc2)nnc1-c1ccncc1	> 50 µM (not active)
O=C(CC(c1ccc(F)cc1)c1ccco1)N1CCOCC1 (centres undefined)	> 50 µM (not active)

test system: not listed separately; experiment: A cytotoxicity screen of small molecule inhibitors of the PhoP region in Salmonella typhi identified in the primary screen. [Related pubchem assays: 1850, 1864, 1985 ]; type: functional; settings: not given

SMILES	EC50
Cc1c(CC(=O)N2CCC(C(N)=O)CC2)c(=O)oc2cc3c(cc12)CCC1(CCCCC1)O3	> 50 µM (active)
N#CCCn1c2ccccc2c2nc3ccccc3nc21	> 50 µM (active)
Cc1nc2cc(C(=O)N3CCC4(CC3)OCCO4)ccc2n1-c1cccc(F)c1	> 50 µM (active)
COc1ccc(Cl)cc1NC(=O)CN(C)CC(=O)Nc1ccccc1C(F)(F)F	> 50 µM (active)

biological target: Cytochrome P450 2C9 (Homo sapiens, UniProt P11712); experiment: not given; settings: not given

SMILES	AC50
C[C@]12Cc3cn4c(nc3C=C1CC[C@H]1[C@@H]2CC[C@@]2(C)[C@H]1CC[C@@]2(O)C#N)nc1ccccc14	10 µM (inconclusive)
Cc1cccc(C(=O)N2CCC(c3nc(-c4ccc(S(=O)(=O)N5CCOCC5)cc4)no3)CC2)c1	39.8 µM (inconclusive)

biological target: Cytochrome P450 3A4 (Homo sapiens, UniProt P08684); experiment: not given; settings: not given;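 note: CYP3A4 tested as one member of a cytochrome P450 panel screen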
Sequence (P08684 whole entry): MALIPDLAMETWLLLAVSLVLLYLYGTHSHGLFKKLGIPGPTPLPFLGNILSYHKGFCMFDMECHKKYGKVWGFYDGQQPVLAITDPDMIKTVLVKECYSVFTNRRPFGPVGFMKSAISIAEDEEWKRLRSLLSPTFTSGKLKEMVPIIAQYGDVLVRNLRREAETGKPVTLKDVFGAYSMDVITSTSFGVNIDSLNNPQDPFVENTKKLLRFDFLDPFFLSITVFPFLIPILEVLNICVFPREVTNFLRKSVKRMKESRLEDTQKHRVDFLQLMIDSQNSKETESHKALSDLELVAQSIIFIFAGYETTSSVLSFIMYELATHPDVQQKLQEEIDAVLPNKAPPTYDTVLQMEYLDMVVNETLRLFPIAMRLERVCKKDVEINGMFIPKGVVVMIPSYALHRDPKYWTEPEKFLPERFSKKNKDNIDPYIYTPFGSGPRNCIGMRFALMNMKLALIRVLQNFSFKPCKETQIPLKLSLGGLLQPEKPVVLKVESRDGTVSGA

SMILES	AC50
C[C@]12Cc3cn4c(nc3C=C1CC[C@H]1[C@@H]2CC[C@@]2(C)[C@H]1CC[C@@]2(O)C#N)nc1ccccc14	inconclusive
Cc1ccccc1OCC(=O)Nc1ccc(N2CCN(C(=O)C(C)C)CC2)c(Cl)c1	inconclusive
c1ccc(-c2noc(CSc3nnnn3C3CCCCC3)n2)cc1	inconclusive
CCN(CC)S(=O)(=O)c1ccc(C(=O)NC2=C(C(=O)OC)SCC2)cc1	inconclusive
c1ccc(Oc2cc(-c3ccccc3)ncn2)cc1	inconclusive
Cc1cccc(C(=O)N2CCC(c3nc(-c4ccc(S(=O)(=O)N5CCOCC5)cc4)no3)CC2)c1	inconclusive

biological target: Cytochrome P450 2C19 (Homo sapiens, UniProt P33261); experiment: Cytochrome panel assay with activity outcomes. Panel member name: p450-cyp2c19 Compounds with AC50 equal or less than 10 uM are considered active; type: functional; settings: read-out: AC50
Sequence (P33261 whole entry): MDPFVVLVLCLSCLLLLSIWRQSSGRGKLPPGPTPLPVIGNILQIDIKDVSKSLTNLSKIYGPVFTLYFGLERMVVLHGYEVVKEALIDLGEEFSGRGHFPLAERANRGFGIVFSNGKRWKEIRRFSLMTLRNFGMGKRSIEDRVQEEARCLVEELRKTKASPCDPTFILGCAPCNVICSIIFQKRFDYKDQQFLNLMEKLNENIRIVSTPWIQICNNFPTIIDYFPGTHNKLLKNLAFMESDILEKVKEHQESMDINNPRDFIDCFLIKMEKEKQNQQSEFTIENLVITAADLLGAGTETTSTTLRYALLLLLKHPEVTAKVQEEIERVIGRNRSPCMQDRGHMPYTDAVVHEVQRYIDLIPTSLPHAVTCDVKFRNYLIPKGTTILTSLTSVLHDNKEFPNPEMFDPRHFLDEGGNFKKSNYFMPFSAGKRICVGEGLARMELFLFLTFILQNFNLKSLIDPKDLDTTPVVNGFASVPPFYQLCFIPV

SMILES	AC50
C[C@]12Cc3cn4c(nc3C=C1CC[C@H]1[C@@H]2CC[C@@]2(C)[C@H]1CC[C@@]2(O)C#N)nc1ccccc14	7.94 µM (inconclusive)
Cc1cccc(C(=O)N2CCC(c3nc(-c4ccc(S(=O)(=O)N5CCOCC5)cc4)no3)CC2)c1	15.8 µM (inconclusive)

test system: not listed separately; experiment: P. falciparum Dd2 growth inhibitors, dose response, SYBR Green, cherry-picked samples (AID 1159567); type: functional, cell-based; settings: not given

SMILES	AC50
C/C=C/c1ccc([C@@H]2[C@@H](CO)N(c3nc(CC)cs3)[C@@H]2CNC(C)C)cc1	0.751 µM (active)
OC[C@H]1[C@@H](c2ccc(/C=C/c3ccccc3)cc2)[C@@H]2CN(Cc3ccncc3)CCCCN12	2.32 µM (active)
Cc1ccc(-c2ccc3c(c2)O[C@@H](CN(C)C(=O)Nc2ccc(C(F)(F)F)cc2)[C@H](C)CN([C@H](C)CO)S3(=O)=O)cc1	5.26 µM (active)

biological target: Cytochrome P450 2D6 (Homo sapiens, UniProt P10635); experiment: not given; settings: not given;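 note: CYP2D6 member of a cytochrome P450 panel assay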
Sequence (P10635 whole entry): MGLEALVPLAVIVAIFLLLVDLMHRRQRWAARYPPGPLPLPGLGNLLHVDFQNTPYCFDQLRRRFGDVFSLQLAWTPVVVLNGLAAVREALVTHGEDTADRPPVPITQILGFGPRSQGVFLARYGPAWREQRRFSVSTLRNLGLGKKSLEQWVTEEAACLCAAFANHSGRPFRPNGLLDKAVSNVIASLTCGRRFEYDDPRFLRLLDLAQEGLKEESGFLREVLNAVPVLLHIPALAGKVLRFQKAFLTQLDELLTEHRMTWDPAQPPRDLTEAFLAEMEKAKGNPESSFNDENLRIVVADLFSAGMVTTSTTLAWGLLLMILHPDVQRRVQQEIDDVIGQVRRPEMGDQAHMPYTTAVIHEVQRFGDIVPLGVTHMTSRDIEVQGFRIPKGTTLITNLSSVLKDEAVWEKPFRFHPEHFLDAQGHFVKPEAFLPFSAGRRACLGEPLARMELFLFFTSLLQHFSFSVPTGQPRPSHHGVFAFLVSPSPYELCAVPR

SMILES	AC50
C[C@]12Cc3cn4c(nc3C=C1CC[C@H]1[C@@H]2CC[C@@]2(C)[C@H]1CC[C@@]2(O)C#N)nc1ccccc14	25.1 µM (inconclusive)
c1ccc(-c2noc(CSc3nnnn3C3CCCCC3)n2)cc1	17.8 µM (inconclusive)
Cc1cccc(C(=O)N2CCC(c3nc(-c4ccc(S(=O)(=O)N5CCOCC5)cc4)no3)CC2)c1	0.00316 µM (inconclusive)

biological target: T3, Voltage-gated N-type calcium channel alpha-1B subunit/Amyloid beta A4 precursor protein-binding family A member 1; experiment: not given; type: protein assay; settings: not given; remark: another data set of the same source

SMILES	IC50
CC(=O)NC1=NC(=O)/C(=C/c2cn(C(C)=O)nc2-c2ccccc2)S1	> 56.8 µM (not active)

test system: not listed separately; experiment: HepG2 cell cytotoxicity, dose response, cytotoxicity control, cherry-picked samples (AID 1159577); type: functional, cell-based; settings: not given

SMILES	AC50
C/C=C/c1ccc([C@@H]2[C@@H](CO)N(c3nc(CC)cs3)[C@@H]2CNC(C)C)cc1	20.8 µM (active)
OC[C@H]1[C@@H](c2ccc(/C=C/c3ccccc3)cc2)[C@@H]2CN(Cc3ccncc3)CCCCN12	12.7 µM (active)
Cc1ccc(-c2ccc3c(c2)O[C@@H](CN(C)C(=O)Nc2ccc(C(F)(F)F)cc2)[C@H](C)CN([C@H](C)CO)S3(=O)=O)cc1	> 39 µM (inactive)

biological target: Estrogen receptor beta (Homo sapiens, UniProt Q92731); experiment: ERβ–SRC-3 coactivator interaction inhibitors, confirmation, orthogonal assay, biochemical, ELISA, streptavidin-HRP readout (AID 1060); settings: not given

SMILES	IC50
Cc1nc2ncnn2c(N2CCN(C(=O)Cc3cccs3)CC2)c1C	0.107 µM (not active)
